In paper PMC7068705 (2019):

Key:
[1] = tested on: SpinachSA (RNA, aptamer) GGGGACGCGACUGAAUGAAAUGGUGAAGGACGGGUCCAGGUGUGGCUGCUUCGGCAGUGCAGCUUGUUGAGUAGAGUGUGAGCUCCGUAACUAGUCGCGUCUUUUUUUUUUUUUUUUUUCGAUCGAUACCGACCAGAAUCAUGCAAGUGCGUAAGAUAGUCGCGGGCCGGGAUCGAUCG; assay: fluorogen fluorescence on RNA array, in situ during transcription; settings: 1X MEGAscript T7 transcription buffer, 37 °C, 90 min; 152 µM DFHBI; immobilised RNA
[2] = tested on: MGSA (RNA, aptamer) GGAUCCCGACUGGCGAGAGCCAGGUAACGAAUGGAUCCACACACACACACACACACACGCAUGCAUACCGACCAGAAUCAUGCAAGUGCGUAAGAUAGUCGCGGGCCGGGAUGCAUGC; assay: fluorogen fluorescence on RNA array; settings: 20 mM NaCl, 6 mM MgCl2; 40 mM Tris-HCl pH 7.8, room temperature, 2 h; 40 µM malachite green; immobilised RNA

binding [1] | binding [2] | SMILES
yes | – | CC1=N/C(=C\c2cc(F)c(O)c(F)c2)C(=O)N1C
– | yes | CN(C)c1ccc(C(=C2C=CC(=[N+](C)C)C=C2)c2ccccc2)cc1
